From patent publication US20210403435A1, “HERBICIDAL COMPOUNDS” (SYNGENTA CROP PROTECTION AG, priority 2018, published 2021)
Where a name gives a salt, the structure may show the parent alone.

Tests used:
Test in all cases: Post-emergence efficacy, glasshouse, evaluated after 13 days
Format in all cases: in vivo
[1] = system: Amaranthus palmeri (AMAPA); details: Amaranthus palmeri, 312 h; post-emergence application, 500 g/Ha, evaluated after 13 days; read-out: Control of weed species AMAPA (100=total damage to plant; 0=no damage to plant)
How it was run: (§1)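 Damage rated on a 0–100 scale (100 = plant killed) 13 days after spraying. Spray contained compound in IF50 emulsifier, diluted with 0.25% or 1% Empicol ESC70 plus 1% ammonium sulphate, applied to 14-day-old glasshouse plants (24/16° C., 14 h light, 65% humidity).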

[2] = system: Chenopodium album (CHEAL); details: Chenopodium album, 312 h; post-emergence application, 500 g/Ha, evaluated after 13 days; read-out: Control of weed species CHEAL (100=total damage to plant; 0=no damage to plant)
How it was run: as §1

[3] = system: Digitaria sanguinalis (DIGSA); details: Digitaria sanguinalis, 312 h; post-emergence application, 500 g/Ha, evaluated after 13 days; read-out: Control of weed species DIGSA (100=total damage to plant; 0=no damage to plant)
How it was run: as §1

[4] = system: Echinochloa crus-galli (ECHCG); details: Echinochloa crus-galli, 312 h; post-emergence application, 500 g/Ha, evaluated after 13 days; read-out: Control of weed species ECHCG (100=total damage to plant; 0=no damage to plant)
How it was run: as §1

Eleusine indica (ELEIN) = details: Eleusine indica, 312 h; post-emergence application, 500 g/Ha, evaluated after 13 days; read-out: Control of weed species ELEIN (100=total damage to plant; 0=no damage to plant)
How it was run: as §1

[5] = system: Euphorbia heterophylla (EPHHL); details: Euphorbia heterophylla, 312 h; post-emergence application, 500 g/Ha, evaluated after 13 days; read-out: Control of weed species EPHHL (100=total damage to plant; 0=no damage to plant)
How it was run: as §1

[6] = system: Ipomoea hederacea (IPOHE); details: Ipomoea hederacea, 312 h; post-emergence application, 500 g/Ha, evaluated after 13 days; read-out: Control of weed species IPOHE (100=total damage to plant; 0=no damage to plant)
How it was run: as §1

Lolium perenne (LOLPE) = details: Lolium perenne, 312 h; post-emergence application, 500 g/Ha, evaluated after 13 days; read-out: Control of weed species LOLPE (100=total damage to plant; 0=no damage to plant)
How it was run: as §1

Setaria faberi (SETFA) = details: Setaria faberi, 312 h; post-emergence application, 500 g/Ha, evaluated after 13 days; read-out: Control of weed species SETFA (100=total damage to plant; 0=no damage to plant)
How it was run: as §1

Question: `CC(C)CNC(=O)c1cc[n+](CCS(=O)(=O)[O-])nc1` [Compound A37] was tested. Which pest or weed control at 500 g/ha [1] did it give?
Answer: 100%

Question: And the pest or weed control at 500 g/ha [2]?
Answer: 80%

Question: And the pest or weed control at 500 g/ha [3]?
Answer: 70%

Question: What about the pest or weed control at 500 g/ha [4] of the same molecule?
Answer: 50%

Question: What about the pest or weed control at 500 g/ha (Eleusine indica (ELEIN)) of the same molecule?
Answer: 60%

Question: What about the pest or weed control at 500 g/ha [5] of the same molecule?
Answer: 70%

Question: What about the pest or weed control at 500 g/ha [6] of the same molecule?
Answer: 50%

Question: What about the pest or weed control at 500 g/ha (Lolium perenne (LOLPE)) of the same molecule?
Answer: 50%

Question: And the pest or weed control at 500 g/ha (Setaria faberi (SETFA))?
Answer: 70%

Question: How did the pest or weed control at 500 g/ha [1] turn out when `CN(C(=O)c1cc[n+](CCC(=O)O)nc1)c1ccccc1` [Compound A38, 3-[4-[methyl(phenyl)carbamoyl]pyridazin-1-ium-1-yl]propanoic acid trifluoroacetate] was run?
Answer: 100%

Question: What about the pest or weed control at 500 g/ha [2] of the same molecule?
Answer: 90%

Question: And the pest or weed control at 500 g/ha [3]?
Answer: 70%

Question: And the pest or weed control at 500 g/ha [4]?
Answer: 60%

Question: What about the pest or weed control at 500 g/ha (Eleusine indica (ELEIN)) of the same molecule?
Answer: 60%

Question: What about the pest or weed control at 500 g/ha [5] of the same molecule?
Answer: 80%

Question: What about the pest or weed control at 500 g/ha [6] of the same molecule?
Answer: 40%

Question: What about the pest or weed control at 500 g/ha (Lolium perenne (LOLPE)) of the same molecule?
Answer: 20%

Question: What about the pest or weed control at 500 g/ha (Setaria faberi (SETFA)) of the same molecule?
Answer: 90%

Question: Which results are given for `CNC(=O)c1cn[n+](CCS(=O)(=O)[O-])cc1-c1ccccc1` [Compound A39]?
Answer: pest or weed control at 500 g/ha [1]: 70%; pest or weed control at 500 g/ha [2]: 70%; pest or weed control at 500 g/ha [3]: 40%; pest or weed control at 500 g/ha [4]: 40%; pest or weed control at 500 g/ha (Eleusine indica (ELEIN)): 50%; pest or weed control at 500 g/ha [5]: 50%; pest or weed control at 500 g/ha [6]: 20%; pest or weed control at 500 g/ha (Lolium perenne (LOLPE)): 10%; pest or weed control at 500 g/ha (Setaria faberi (SETFA)): 30%

Question: `COCCNC(=O)c1cc[n+](CCC(=O)O)nc1` [Compound A40] was tested. Which pest or weed control at 500 g/ha [1] did it give?
Answer: 100%

Question: And the pest or weed control at 500 g/ha [2]?
Answer: 90%

Question: And the pest or weed control at 500 g/ha [3]?
Answer: 100%

Question: And the pest or weed control at 500 g/ha [4]?
Answer: 90%

Question: What about the pest or weed control at 500 g/ha (Eleusine indica (ELEIN)) of the same molecule?
Answer: 100%

Question: What about the pest or weed control at 500 g/ha [5] of the same molecule?
Answer: 100%

Question: What about the pest or weed control at 500 g/ha [6] of the same molecule?
Answer: 60%

Question: And the pest or weed control at 500 g/ha (Lolium perenne (LOLPE))?
Answer: 70%

Question: What about the pest or weed control at 500 g/ha (Setaria faberi (SETFA)) of the same molecule?
Answer: 100%

Question: For `O=C(O)CC[n+]1ccc(C(=O)Nc2ccon2)cn1` [Compound A41], which pest or weed control at 500 g/ha [1] is on record?
Answer: 80%

Question: What about the pest or weed control at 500 g/ha [2] of the same molecule?
Answer: 90%

Question: And the pest or weed control at 500 g/ha [3]?
Answer: 70%

Question: What about the pest or weed control at 500 g/ha [4] of the same molecule?
Answer: 50%

Question: And the pest or weed control at 500 g/ha (Eleusine indica (ELEIN))?
Answer: 60%

Question: And the pest or weed control at 500 g/ha [5]?
Answer: 90%

Question: And the pest or weed control at 500 g/ha [6]?
Answer: 20%

Question: And the pest or weed control at 500 g/ha (Lolium perenne (LOLPE))?
Answer: 10%

Question: And the pest or weed control at 500 g/ha (Setaria faberi (SETFA))?
Answer: 90%

Question: How did the pest or weed control at 500 g/ha [1] turn out when `COC(=O)CC[n+]1ccc(C(=O)Nc2nccs2)cn1` [Compound A42] was run?
Answer: 20%

Question: And the pest or weed control at 500 g/ha [2]?
Answer: 40%

Question: And the pest or weed control at 500 g/ha [3]?
Answer: 10%

Question: What about the pest or weed control at 500 g/ha [4] of the same molecule?
Answer: 10%

Question: And the pest or weed control at 500 g/ha (Eleusine indica (ELEIN))?
Answer: 10%

Question: And the pest or weed control at 500 g/ha [5]?
Answer: 60%

Question: What about the pest or weed control at 500 g/ha [6] of the same molecule?
Answer: 10%

Question: What about the pest or weed control at 500 g/ha (Lolium perenne (LOLPE)) of the same molecule?
Answer: 10%

Question: And the pest or weed control at 500 g/ha (Setaria faberi (SETFA))?
Answer: 10%

Question: `CCNC(=O)c1cc[n+](CCC(=O)O)nc1` [Compound A43] was tested. Which pest or weed control at 500 g/ha [1] did it give?
Answer: 100%

Question: What about the pest or weed control at 500 g/ha [2] of the same molecule?
Answer: 90%

Question: And the pest or weed control at 500 g/ha [3]?
Answer: 100%

Question: What about the pest or weed control at 500 g/ha [4] of the same molecule?
Answer: 60%

Question: What about the pest or weed control at 500 g/ha (Eleusine indica (ELEIN)) of the same molecule?
Answer: 100%

Question: And the pest or weed control at 500 g/ha [5]?
Answer: 100%

Question: And the pest or weed control at 500 g/ha [6]?
Answer: 70%

Question: And the pest or weed control at 500 g/ha (Lolium perenne (LOLPE))?
Answer: 50%

Question: And the pest or weed control at 500 g/ha (Setaria faberi (SETFA))?
Answer: 100%

Question: How did the pest or weed control at 500 g/ha [1] turn out when `O=C(O)CC[n+]1ccc(C(=O)NCCO)cn1` [Compound A44] was run?
Answer: 100%

Question: And the pest or weed control at 500 g/ha [2]?
Answer: 100%

Question: And the pest or weed control at 500 g/ha [3]?
Answer: 100%

Question: And the pest or weed control at 500 g/ha [4]?
Answer: 90%

Question: What about the pest or weed control at 500 g/ha (Eleusine indica (ELEIN)) of the same molecule?
Answer: 30%

Question: And the pest or weed control at 500 g/ha [5]?
Answer: 100%

Question: What about the pest or weed control at 500 g/ha [6] of the same molecule?
Answer: 100%

Question: What about the pest or weed control at 500 g/ha (Lolium perenne (LOLPE)) of the same molecule?
Answer: 30%

Question: And the pest or weed control at 500 g/ha (Setaria faberi (SETFA))?
Answer: 100%

Question: Which results are given for `CCCNC(=O)c1cc[n+](CCC(=O)O)nc1` [Compound A46]?
Answer: pest or weed control at 500 g/ha [1]: 50%; pest or weed control at 500 g/ha [2]: 70%; pest or weed control at 500 g/ha [3]: 90%; pest or weed control at 500 g/ha [4]: 80%; pest or weed control at 500 g/ha (Eleusine indica (ELEIN)): 10%; pest or weed control at 500 g/ha [5]: 100%; pest or weed control at 500 g/ha [6]: 40%; pest or weed control at 500 g/ha (Lolium perenne (LOLPE)): 20%; pest or weed control at 500 g/ha (Setaria faberi (SETFA)): 100%
